No end group written: not given here.
Key:
[1] = tested on: T. brucei MERS1 (residues 37–395); assay: FP peptide binding to MERS1; design: species or system Trypanosoma brucei; conditions: 25 mM Tris HCl pH 7.5, 5% (v/v) glycerol, 150 mM NaCl, 1 nM fluoresceinated peptide (Fig. 4B)
Excerpt: We considered that the bound helix provided from crystal packing might mimic a portion of MERS2 or MERS3 that interacts with MERS1. Thus, using the MERS1-peptide contacts we derived a consensus MERS1-peptide interacting motif, (M/L)XXALXXEL and probed the MERS2 and MERS3 sequences for similar motifs. While no homology was found between the sequence and that of MERS3, one strong match for the motif was located within the central PPR motif region of MERS2 (residues 394–402). This region is predicted to be helical and contain a PPR motif in MERS2. Attempts to purify MERS2 or a MERS2 truncation containing this PPR motif for binding analyses, however, were unsuccessful. Thus, we obtained a fluoresceinated peptide encompassing this MERS2 region, F-[…] (where underlined residues correspond to the peptide consensus residues) and utilized this peptide in FP binding studies. […] However, to test whether helical residues observed in the crystal to make contact to MERS1 are involved in binding, we obtained a fluoresceintated peptide in which the first leucine and the glutamic acid in the helix were substituted to prolines (F-[…]).
For structural studies, the nucleotides encoding residues 37–395 of MERS1 were cloned into pET15b between the BamHI and NdeI restriction sites. […]

[2] = tested on: T. brucei MERS1 (residues 37–395); assay: Fluorescence polarization (FP) RNA/DNA binding to MERS1; design: species or system Trypanosoma brucei; conditions: 25 mM Tris HCl pH 7.5, 5% (v/v) glycerol, 50 mM NaCl; for Binding to MERS1, result in words: 25°C, 1 nM fluoresceinated RNA or DNA
Excerpt: We next used FP binding studies to assess RNA binding by purified MERS1. […] We next probed the importance of specific nucleotides in the RNA binding site by performing FP studies on mutant forms of the RNA site.
For structural studies, the nucleotides encoding residues 37–395 of MERS1 were cloned into pET15b between the BamHI and NdeI restriction sites. E. coli C41(DE3) cells were transformed with the expression plasmid and protein expression was induced by addition of isopropyl β-D-1-thiogalactopyranoside (IPTG) to a final concentration of 0.5 mM for 4 h at 37°C when the cells had reached an A600 of 0.4–0.6. The cells were reconstituted in 25 mM Tris HCl pH 7.5, 300 mM NaCl, 5% glycerol, 0.5 mM β-mercaptoethanol and lysed with a microfluidizer. The expressed MERS1 protein was found in the soluble fraction and was purified using nickel-nitrilotriacetic acid (Ni-NTA) column chromatography. The protein was further purified by Superdex 75 size exclusion column (SEC) chromatography. MERS1 mutants were made using the Quikchange mutagenesis protocol and expressed and purified as per the WT protein.
FP experiments were performed using a PanVera Beacon 2000 FP system at 25°C ([Lundblad et al. 1996]). For the experiments, purified proteins were titrated into 0.990 mL buffer composed of 25 mM Tris HCl pH 7.5, 5% (v/v) glycerol and 50 mM NaCl and containing 1 nM (final concentration) fluoresceintly labeled RNA substrate, 5′-GAGAGGGGGUU-3′, or DNA, 5′-GTGAGTACTCAC-3′. Data were fit using KaleidaGraph. Each binding curve is a representative curve from two to three technical replicates. Mutant RNA sites tested were 5′-AAGAGGGGGUU-3′ (Supplemental Fig. S2), 5′-GGGAGGGGGUU-3′, 5′-GAAAGGGGGUU-3′, 5′-GAGGGGGGGUU-3′, 5′-GAGAAGGGGUU-3′, 5-GAGAGAGGGUU-3′, 5′-GAGAGGAGGUU-3′ and 5′-GAGAGGGAGUU-3′.

[3] = molecular target: T1, MERS1 (Trypanosoma brucei brucei TREU927, UniProt B6SBM0 37-395); assay: fluorescence polarization; FP: 25 mM Tris HCl pH 7.5, 50 mM NaCl, 5% (v/v) glycerol, 1 nM labeled RNA or DNA, 25 C; conditions: protein: recombinant, tags: N-terminal His tag (pET15b, linker LVPRGSM); for Kd: single-stranded
T1 sequence: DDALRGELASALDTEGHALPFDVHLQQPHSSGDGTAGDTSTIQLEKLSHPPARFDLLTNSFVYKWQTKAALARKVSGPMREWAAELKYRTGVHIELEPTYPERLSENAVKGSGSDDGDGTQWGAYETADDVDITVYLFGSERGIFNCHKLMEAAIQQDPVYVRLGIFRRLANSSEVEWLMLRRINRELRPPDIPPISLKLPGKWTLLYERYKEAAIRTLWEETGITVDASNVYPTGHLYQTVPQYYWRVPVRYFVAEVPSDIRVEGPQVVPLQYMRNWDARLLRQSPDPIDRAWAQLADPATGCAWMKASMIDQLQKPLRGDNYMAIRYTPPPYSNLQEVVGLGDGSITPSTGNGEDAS

[4] = molecular target: T2, T. brucei MERS1(37–395), his-tagged (Trypanosoma brucei brucei TREU927, UniProt B6SBM0 37-395); assay: fluorescence polarisation; purified MERS1 titrated into 1 nM fluoresceinated peptide; 25 mM Tris HCl pH 7.5, 5% (v/v) glycerol, 150 mM NaCl; conditions: both partners purified
T2 construct: MERS1, Trypanosoma brucei, 395 residues; A selenomethionine-substituted form was used for phasing of the GTP crystal; also called mitochondrial edited mRNA stability factor 1; WT MERS1; source: E. coli C41(DE3), pET15b, purified (Ni-NTA, Superdex 75 SEC); not shown: His tag, N-terminal, kept
T2 sequence: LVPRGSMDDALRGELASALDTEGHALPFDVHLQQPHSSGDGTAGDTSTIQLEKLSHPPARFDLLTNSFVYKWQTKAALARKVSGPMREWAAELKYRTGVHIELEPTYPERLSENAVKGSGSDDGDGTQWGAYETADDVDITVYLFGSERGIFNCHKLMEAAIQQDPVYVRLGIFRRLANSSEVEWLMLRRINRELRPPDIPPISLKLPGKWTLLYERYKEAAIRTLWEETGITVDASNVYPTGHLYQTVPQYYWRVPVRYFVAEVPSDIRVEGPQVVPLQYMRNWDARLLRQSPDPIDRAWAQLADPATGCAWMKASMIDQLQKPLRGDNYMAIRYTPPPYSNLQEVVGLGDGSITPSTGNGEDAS

[5] = molecular target: T1, MERS1; assay: X-ray crystallography; 2.60 A; four nucleotides resolved per subunit; FP: 25 mM Tris HCl pH 7.5, 50 mM NaCl, 5% (v/v) glycerol, 1 nM labeled RNA or DNA, 25 C; conditions: protein: recombinant; tags: N-terminal His tag (pET15b, linker LVPRGSM); single-stranded
[6] = molecular target: T1, MERS1; assay: fluorescence polarization; Results text prints the 12-mer; Methods and Fig. 5 print this 11-mer; FP: 25 mM Tris HCl pH 7.5, 50 mM NaCl, 5% (v/v) glycerol, 1 nM labeled RNA or DNA, 25 C; conditions: protein: recombinant; tags: N-terminal His tag (pET15b, linker LVPRGSM); single-stranded

For “F-SVSKQAVCLMERHLRRVPGARRNELKVAPSKPLKER [peptide in which the first leucine and the glutamic acid in the helix were substituted to prolines]”, the “Peptide binding to MERS1, result in words” value [1] was “only weak binding”.

In the case of “5′-GTGAGTACTCAC-3′: DNA site used as comparison in FP binding (DNA, backbone and methylation of C not given here; further chemistry not fully specified) [reference compound]”, the “Binding to MERS1, result in words” value [2] is reported as “essentially no binding” and the “Binding to MERS1, result in words” value ([2]; listed as DNA) is reported as “no binding”.

For “5′-GAGAGGGAGUU-3′ (RNA, backbone not given here)”, the “Binding to MERS1, result in words” value [2] was “did not bind saturably”.

“5′-GAGAGGGGGUU-3′: fluoresceintly labeled RNA substrate (RNA, backbone not given here; fluorescein label)” was tested, and the “Binding to MERS1, result in words” value [2] was “binds MERS1 with high affinity”.

In the case of “5′-GAGAGGGGGGUU-3′: RNA binding site; also used for the MERS1–RNA crystal structure (RNA, backbone not given here)”, the Kd ([2]; PanVera Beacon 2000, 25°C, 1 nM fluoresceinated RNA, MERS1 titrated, ± standard error, representative of at least three technical replicates (Fig. 5B)) is reported as 40 ± 0.9 nM.

For “5′-GAGAGGAGGUU-3′ (RNA, backbone not given here)”, the “Binding to MERS1, result in words” value [2] was “did not bind saturably”.

In the case of “5′-GAGAGAGGGUU-3′ (RNA, backbone not given here)”, the “Binding to MERS1, result in words” value [2] is reported as “did not bind saturably”.

In the case of “F-MSNNALDRLINKQKPKVPPRNDVVSESVSN [another fluoresceinated peptide that lacked the consensus residues, reference compound]”, the “Peptide binding to MERS1, result in words” value [1] is reported as “failed to interact”.

Molecule AAGAGGGGGUU (ssRNA) [RNA G1A] has a Kd ([3]; label: 5' fluorescein) of 39 ± 4 nM.

GGGAGGGGGUU (ssRNA) [RNA A2G] gave a Kd ([3]; label: fluorescein) of 48 ± 0.9 nM.

B1: fluoresceinated MERS2 peptide F-SVSKQAVCLMERHLRRVPGARRNELKVALSKELKER (peptide)
peptide: fluorescein-SVSKQAVCLMERHLRRVPGARRNELKVALSKELKER
notes: MERS2, T. brucei, 946 residue pentatricopeptide repeat protein; limits worked out from that motif; also called MER2 peptide
Molecule B1 has a Kd [4] of 2500 nM.

B2: DNA control (dsDNA)
DNA 1: GTGAGTACTCAC
DNA 2: GTGAGTACTCAC
B2: no binding ([3]; label: fluorescein, self-complementary 12-mer, blunt if duplex).

Work on GAGAAGGGGUU (ssRNA) [RNA G5A] yielded a Kd ([3]; label: fluorescein) of 43 ± 5 nM.

GAGAGGGGGGUU (ssRNA) [RNA 12-mer (crystal)]: binds [5].

Work on GAGAGGGGGUU (ssRNA) [WT RNA site (11-mer, FP)] yielded a Kd [6] of 40 ± 0.9 nM.

In the case of GAGGGGGGGUU (ssRNA) [RNA A4G], the Kd ([3]; label: fluorescein) is reported as 47 ± 5 nM.

GAAAGGGGGUU (ssRNA) [RNA G3A] gave a Kd ([3]; label: fluorescein) of 78 ± 4 nM.
